Test results reported in PubChem BioAssay (NCI).
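The compound was tested at five concentrations on cells cultured in 96-well plates, with a 48-hour exposure period. TGI: total growth inhibition.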 *1 amine or outer side, *2 acyl side, *3 side chain or, on linkers, in order; H or OH if unused. Where a SMILES comes first, the peptide text is derived from it. Bridges are numbered along the chain shown (N, C = ends). Roman numbers before positions name the chains, in order. [ ]: non-standard residue; d: D form. Actinocin(9to1) = Cc1c2oc3c(C)ccc(C(=O)[*:1])c3nc-2c(C(=O)[*:2])c(N)c1=O; NMeH = CN[CH](Cc1c[nH]cn1)C(=O)O; Sar = CNCC(=O)O

Assays:
Assay in all cases: NCI tumour cell line growth inhibition, 48 h
U251 CNS = tested on: U251 CNS
RXF 393 renal = tested on: RXF 393 renal
BT-549 breast = tested on: BT-549 breast
MOLT-4 leukemia = tested on: MOLT-4 leukemia
CCRF-CEM leukemia = tested on: CCRF-CEM leukemia
CAKI-1 renal = tested on: CAKI-1 renal
HCT-15 colon = tested on: HCT-15 colon
NCI/ADR-RES ovarian = tested on: NCI/ADR-RES ovarian
IGROV1 ovarian = tested on: IGROV1 ovarian
SF-295 CNS = tested on: SF-295 CNS

Structure (SMILES)	TGI (U251 CNS) [µM]	TGI (RXF 393 renal) [µM]	TGI (BT-549 breast) [µM]	TGI (MOLT-4 leukemia) [µM]	TGI (CCRF-CEM leukemia) [µM]	TGI (CAKI-1 renal) [µM]	TGI (HCT-15 colon) [µM]	TGI (NCI/ADR-RES ovarian) [µM]	TGI (IGROV1 ovarian) [µM]	TGI (SF-295 CNS) [µM]
O=C(O)CSc1ccccc1C(=O)O	> 100	> 100	> 100	> 100	> 100	> 100	> 100	> 100	> 100	> 100
Cc1c2oc3c(C)ccc(C(=O)NC4C(=O)NC(C(C)C)C(=O)N5CCCC5C(=O)N(C)CC(=O)N(C)C(Cc5cnc[nH]5)C(=O)OC4C)c3nc-2c(C(=O)NC2C(=O)NC(C(C)C)C(=O)N3CCCC3C(=O)N(C)CC(=O)N(C)C(Cc3cnc[nH]3)C(=O)OC2C)c(N)c1=O (stereo not given) (I: TVP[Sar][NMeH] / II: TVP[Sar][NMeH]; ester I:1-I:C, II:1-II:C; linker I:N-II:N via Actinocin(9to1); configuration not given here)	> 100	51.9	> 100	> 100	> 100	> 100	> 100	> 100	> 100	> 100
N#Cc1c(-c2ccc(Cl)cc2)cc(-c2ccc(Nc3ccnc4cc(Cl)ccc34)cc2)[nH]c1=O	> 61	> 68	54.2	> 100	31.6	> 100	> 100	> 100	> 100	> 62.1
CCN1C/C(=C\c2ccc(Cl)cc2)c2nc(N)c(C#N)c(-c3ccc(Cl)cc3)c2C1	> 100	> 100	> 100	> 100	> 100	> 100	> 100	> 100	> 100	> 100
C1=NCCNCCNCCN=Cc2ccc(cc2)OCc2cccc(n2)COc2ccc1cc2	> 100	> 100	> 100	> 100	> 100	> 100	> 100	> 100	> 100	> 100
C=C(C(=O)O[C@H]1C/C(C)=C/CC/C(CO)=C/[C@H]2C(=O)OC(=C)[C@H]12)C(O)CO (stereo not given in full)	27.1	25.9	30.2	13.2	4.92	9.1	24.4	48.4	39.5	> 60.8
CC(=O)O[C@H]1CC[C@@]2(C)C(=CC[C@@H]3[C@@H]2CC[C@]2(C)C(=N/O)/C(=C\c4ccccc4)C[C@@H]32)C1	> 81.5	40	> 100	> 28.5	> 100	> 100	> 100	> 72.9	> 100	67.1
C#CC(O)(c1nc2ccccc2s1)c1nc2ccccc2s1	44	89.7	57.3	> 100	79	> 100	60.6	75.6	31.6	76.8
Cc1cn(C2CCC(CO)(CF)O2)c(=O)[nH]c1=O (stereo not given)	> 100	> 100	> 100	> 100	> 100	> 100	> 100	> 100	> 100	> 100
NNC(=O)Nc1nc2ccc(NN)cc2[nH]1	> 100	97.2	84.1	32.3	41.7	> 100	> 100	> 100	> 100	> 100
N#CC1(C#N)C(C#N)(C#N)C1(C#N)C(N)=O	> 100	> 100	> 100	> 100	> 100	> 100	> 100	> 100	> 100	> 100
CNc1nnc(CCCCCCCCc2nnc(NC)o2)o1	63.7	> 100	> 100	> 100	43	31.3	> 100	> 100	> 100	> 100
c1nc(NCCc2cnc[nH]2)c2[nH]cnc2n1	> 100	> 100	> 100	> 100	> 100	> 100	> 100	> 100	> 100	> 100
O=C(Nc1sccc1S(=O)(=O)c1ccc(Cl)cc1)c1ccc(F)cc1F	45	46.2	46.8	56.7	37.8	65.9	> 100	> 100	> 100	65.3
Cn1nc2ccc(Nc3cc(=O)[nH]c4ccc5nn(C)nc5c34)cc2n1	> 100	> 100	> 100	> 100	> 100	> 100	> 100	> 100	> 100	> 100
CN(Cc1cnc2nc(N)nc(N)c2n1)c1ccc(C(=O)NC23CC4CC(CC(C4)C2)C3)cc1	44.3	40.4	31.1	48.5	52	27.8	16.6	> 100	21.8	21.1
Cc1ccc(S(=O)(=O)N2C[C@@H]3CC[C@]4(CO[Si](C)(C)C(C)(C)C)N[C@@H](c5ccccc5)[C@H]2[C@H]34)cc1	> 100	53.1	87.8	> 100	> 100	> 100	> 100	> 100	> 100	> 100
CCCC[C@@H](C)/C=C1\CN2CCC[C@H]2[C@@](C)(OCc2ccccc2)[C@@H]1O	> 50	> 50	> 50	> 50	> 50	> 50	> 50	> 50	> 50	> 50
COc1cccc(N=N/C(=N/NC(=O)c2ccc(C)cc2)c2ccc(N(CCC#N)CCC#N)cc2OC)c1	> 100	> 100	> 100	> 100	> 100	> 100	> 100	> 100	> 100	> 100
